Experimental data as given in patent US10392363B2, “Methods for treating protozoan infections” (Neoculi Pty Ltd., priority 2014, dated 2019).
Values belong to the compound of their own block, whether it stands above or below them.

How the values were obtained:
[1] = test system: Mouse macrophages (RAW 264.7); experiment: Cell toxicity assay (WST-1); assay type: cell-based; settings: RAW 264.7, 24 hours, read-out: GI50 macrophage
Description: (§1) Cell toxicity assays. Mouse macrophages (RAW 264.7) were grown in RPM11640 media supplemented with L-glutamine and 10% foetal calf serum. Cells were trypsanised when 80% confluent and subcultured every 3-4 days. For cytotoxicity assays cells were diluted to a final cell concentration of 2×10^4 cells/ml and 198 μl added to each well of a 96 well plate. Cells were incubated in a humidified incubator for 2 hours at 37° C. 5% CO2 before the addition of NCL compounds (2 μl/well, previously diluted in DMSO). Campothecin, triton X and DMSO only were used as controls. Cells were exposed to the compounds for 24 hours. The metabolic activity of the cells was determined using the WST-1 assay system (Roche Life Science). The supernatant was removed, 100 μl of PBS with 10% WST-1 was added to each well and incubated for 1 hr before reading absorbance at 450 nm. The selectivity index of the compounds was determined by dividing the IC50 of macrophages by the IC50 against parasites. IC50 was determined via graphpad prism software.

[2] = test system: T. brucei procyclic stage; experiment: T. brucei screening (alamar blue); assay type: cell-based, Trypanosoma brucei; settings: for T. brucei SI: GI50 of macrophages divided by IC50 of parasites; for reduction of metabolic activity / inhibitory effect on T. brucei: 10 μM, 48 hrs
Description: T. brucei screening. Procyclic promastigotes from exponentially growing cells maintained SDM-79 medium were used in all assays. Compounds were initially screened at 10 μM for activity. Compounds were diluted in culture media to a concentration of 20 μM and added to a 96 well plate, after addition of promastigotes (final concentration 4×10^5 cells/ml) compound concentration was 10 μM. Cells were incubated for 48 hrs at 27° C. before the addition of alamar blue and fluorescence measurement as described above. […] Compounds were serially diluted in thirds in culture media resulting in final concentrations ranging from 0.004-10 μM. Promastigotes were added at a final concentration of 4×10^5 cells/ml. Cells were incubated at 27° C. for 48 hours before addition of alamar blue. In addition promastigotes, at a concentration of 8×10^5 were exposed to NCL026 for 1.5 hours before removal of the drug via centrifugation at 5000 rpm for 7 minutes and resuspension of cells in culture media. Cells were incubated for 96 hours at 27° C. and observed daily for metabolic activity (alamar blue assay) and morphological changes. A control culture was exposed to DMSO instead of NCL026.

[3] = test system: Leishmania donovani promastigotes; experiment: L. donovani screening (Alamarblue); assay type: cell-based; settings: for L. donovani SI: GI50 of macrophages divided by IC50 of parasites; for inhibition at 10 µM: 96 hrs, read-out: reduction of metabolic activity / inhibition of L. donovani
Description: L. donovani Screening. Procyclic promastigotes from exponentially growing cultures maintained in DME-L+ Bob additions were used for all assays. Compounds were initially screened for activity at 10 μM. Compounds were diluted in culture media to a […] in 96 well plates. Promastigotes were diluted to a density of ˜8×10^5 cells/ml then added to the assay plate resulting in a final cell density of 4×10^5 cells/ml. in 96 well plates. Cells were incubated for 96 hrs at 27° C. before the addition of Alamarblue (thermofisher). Fluorescence was read at excitation 530 nm and Emission 590 nm. […] Compounds were serially diluted in thirds, in a 96 well plate, in cell growth media so that concentrations ranged from 0.005 to 10 μM and promastigotes added to a final concentration of 1×10^6 cells/ml. Cells were incubated at 27° C. for 72 hours before the addition of alamar blue. Fluorescence was measured as above.

[4] = test system: Giardia duodenalis trophozoites; experiment: Resazurin reduction assay (Example 3); assay type: cell-based; settings: 42 hours, then 6 hours with Alamarblue
Description: Giardia trophozoites were grown until confluent. The media was replaced with fresh media and they were cold shocked for 40 minutes (as above). Cells were diluted to a concentration of ˜500 000 cells/ml and 100 μl were added to each well of the assay plate (except media only control). The assay was incubated in an anaerobic environment (candle jar) for 42 hours at 37° C. […] After incubation the absorbance of each sample was read at 570 and 630 nm. The percent reduction of resazurin (Alamarblue™) was calculated and data was analysed with GraphPad Prism v6 software. Assay set-up: the assay was performed in 96 well plates in a total volume of 200 μl. 100 μl of NCL812 or NCL062 (concentration of 25.6 mg/ml in DMSO) or metronidazole (concentration 5 mg/ml in DMSO) stock was added to 9.9 ml of TYI-S-33 medium, then serially diluted 1:2 in the same medium. Cells were added as above.

[5] = test system: Giardia duodenalis (strain WB trophozoites); experiment: Giardia adherence assay; assay type: cell-based; settings: exposed for 5 hours
Description: Giardia strain WB was grown until confluent (grown and maintained in TYI-S-33 medium with 10% foetal bovine serum). For the assay, media of a confluent culture was replaced with fresh TYI-S-33 medium. Cultures were then cold shocked (on ice) for 40 minutes to detach trophozoites. The cell density of the cultures was adjusted to 1×10^6 cells/ml and 1 ml was added to each well of a 24 well plate already containing 1 ml of diluted compounds (see below). […] After incubation the coverslips were removed, air-dried and stained with Diff-Quik (a Romanowski stain variant). Coverslips were mounted onto glass slides using polymount. Images at 10× magnification were taken at 5 random locations per coverslip. […] Stock solutions of compounds were prepared in DMSO at 25.6 mg/ml. Compounds were diluted 1:100 in TYI-S-33 medium. A 1:2 serial dilution was then performed in TYI-S-33 medium in 24 well plates.

giardia = settings: cited from earlier work
[6] = Exposure in male Swiss outbred mice following IV administration; assay type: in vivo; settings: IV 5 mg/kg; for Apparent t1/2: plasma, value marked b is an approximation; for AUC0-inf / Plasma CL / Plasma Vss: values marked a, b are approximations
Description: The systemic exposures of NCL026, NCL195, NCL259 and NCL812 were studied in nonfasted male Swiss outbred mice weighing 26.2-32.1 g. Mice had access to food and water ad libitum throughout the pre- and post-dose sampling period. Each compound was administered IV via a bolus injection into the tail vein (vehicle 20% (v/v) DMSO in PEG400, 1 mL/kg dose volume, n=8 mice per compound). […] A maximum of two samples were obtained from each mouse, with samples being taken either via submandibular bleed (approximately 120 μL; conscious sampling) or terminal cardiac puncture (0.6 mL; while mice were anaesthetised using inhaled Isoflurane). No urine samples were collected as mice were housed in bedded cages during the study. Blood was collected directly into polypropylene Eppendorf tubes containing heparin as anticoagulant, and stabilisation cocktail (containing Complete® (a protease inhibitor cocktail with EDTA) and potassium fluoride) to minimise the potential for ex vivo degradation of the test compounds in blood/plasma samples. Once collected, blood samples were centrifuged immediately, supernatant plasma was removed, and stored at −80° C. until analysis by LC-MS using methods standard in the art. Each compound was administered in a vehicle composed of 20% (v/v) DMSO in PEG400. Formulations were prepared by dissolving the compounds in DMSO prior to addition of PEG400. Formulations were not filtered prior to dosing and were administered to mice within 2.5 h of preparation. […] The dose administered to each mouse was calculated on the basis of the measured concentration in the IV formulation, the dose volume and individual mouse body weight. Plasma concentration versus time data were analysed using non-compartmental methods (WinNonlin Version 6.3.0.395). Standard calculations for each pharmacokinetic parameter were calculated using standard methods in the art.

[7] = test system: Trypanosoma cruzi (Tulahuen trypomastigotes expressing β-galactosidase, in L6 cells); experiment: In vitro T. cruzi assay for determination of IC50; assay type: cell-based; settings: 96 h incubation
Description: The T. cruzi assay uses Tulahuen trypomastigotes expressing the β-galactosidase gene. The parasites were maintained in vitro by serial passage in L6 cells. […] Extracellular trypomastigotes were then removed and NCL compounds were added in seven-point serial dilutions performed in triplicate. Benznidazole (Epichem Pty Ltd.) was included as a control. […] After 4-6 h, a colour change following catabolisation of the reagent by viable T. cruzi was observed and absorbance was read at 530 nm using a Dynex microplate reader. […] For each compound, % inhibition values were used to generate a standard curve from which the IC50 was calculated. Each assay was performed at least twice, and the average was used.

[8] = Cell toxicity assay (WST-1); assay type: cell-based, mouse; settings: mouse, RAW 264.7 macrophages, RAW 264.7, 24 hours, read-out: GI50 macrophage
Description: as §1

[9] = Exposure of NCL195 in male Swiss outbred mice following IP administration; assay type: in vivo
Description: The formulation was prepared by dissolving solid NCL195 in DMSO (to 20% (v/v) of the final volume) before adding PEG400, yielding a clear yellow solution that was dosed to mice within 30 minutes of preparation. The measured concentration of NCL195 in the final formulation was 21.9 mg/mL, resulting in a mean administered dose of 43 mg/kg. Following administration, blood samples were collected up to 24 h post-dose (n=2 mice per time point). A maximum of two samples were obtained from each mouse, with samples being taken either via submandibular bleed (approximately 120 μL; conscious sampling) or terminal cardiac puncture (0.6 mL; while mice were anaesthetised using inhaled Isoflurane). No urine samples were collected as mice were housed in bedded cages during the study. Blood was collected directly into polypropylene Eppendorf tubes containing heparin as anticoagulant and stabilisation cocktail (containing Complete® (a protease inhibitor cocktail), potassium fluoride and EDTA) to minimise the potential for ex vivo degradation of NCL195 in blood/plasma samples. Once collected, blood samples were centrifuged immediately, supernatant plasma was removed, and stored in −20° C. until analysis by LCMS using standard methods in the art.

Apparent t1/2 [6]: 2.4 h | AUC0-inf [6]: 12.5 µM·h | Plasma CL [6]: 16.3 mL/min/kg | Plasma Vss [6]: 2.6 L/kg | IC50 ([2]; 48 hours): 1460 ± 760 nM | IC50 ([2]; Trypanosoma brucei, 48 h): 1500 nM | absorption after dosing ([9]; IP, 43 mg/kg): rapidly absorbed | duration of exposure at a plasma concentration >8 μg/mL ([9]; extrapolated to IP 100 mg/kg, assuming dose proportionality): at least 7.5 hours
SMILES: Cc1ccc(/C=N/Nc2cc(N/N=C/c3ccc(C)cc3)nc(N)n2)cc1 [NCL195, 4,6-bis(2-((E)-4-methylbenzylidene)hydrazinyl)pyrimidin-2-amine]
inhibition at 10 µM ([3]; Leishmania donovani): 100% | GI50 at 24 h [8]: 5780 ± 330 nM | T. brucei SI [2]: 3.79 | adverse reactions or compound-related side effects ([9]; IP, 43 mg/kg): No adverse reactions or compound-related side effects

IC50 ([3]; Leishmania donovani, 72 h): 920 ± 60 nM
SMILES: CN(C)c1ccc(/C=N/NC(=N)N/N=C/c2ccc(N(C)C)cc2)cc1.Cl [NCL113]
L. donovani SI [3]: highly selective | L. donovani SI ([3]; listed as NCL 113): 14 | GI50 at 24 h [8]: 12900 ± 3490 nM

IC50 ([2]; Trypanosoma brucei, 48 h): 4040 ± 830 nM
SMILES: C/C(=N\NC(=N)N/N=C(\C)c1ccc(Cl)cc1)c1ccc(Cl)cc1.Cl [NCL062]
metabolic activity of the trophozoites (percentage of reduction of resazurin) [4]: reduction in the metabolic activity | inhibition at 10 µM ([3]; Leishmania donovani): 100% | GI50 at 24 h [8]: 7150 ± 1270 nM | reduction of metabolic activity / inhibitory effect on T. brucei [2]: greatest inhibitory effect | T. brucei SI [2]: 1.75

Second part, the compound before the results:

SMILES: CN(C)c1ccc(C=NNC(=N)NN=Cc2ccc(N(C)C)cc2O)c(O)c1 [NCL171]
GI50 [1]: 12500 ± 3610 nM | IC50 ([2]; 48 hours): 1400 nM | IC50 ([2]; 48 hours, listed as NCL 171): 1370 ± 30 nM | T. brucei SI [2]: relatively selective | T. brucei SI ([2]; listed as NCL 171): 9.14

SMILES: Cl.N=C(NN=Cc1ccc(SC(F)(F)F)cc1)NN=Cc1ccc(SC(F)(F)F)cc1 [NCL166]
IC50 ([3]; 72 hours): 3230 ± 1000 nM | L. donovani SI [3]: 2.78 | GI50 [1]: 9460 ± 50 nM

SMILES: Cc1ncc([N+](=O)[O-])n1CCO [metronidazole, reference compound]
metabolic activity of the trophozoites (percentage of reduction of resazurin) [4]: reduction in the metabolic activity | number of adherent trophozoites [5]: significant decreases | median efficacy (giardia; giardia treatment): approximately 89% | giardia curative rate (clearance of the protozoan) (giardia; human adult and paediatric patients, 5-10 days, reported as low as): ≥ 60%

SMILES: CC(=O)Oc1ccccc1C(=O)Nc1ncc([N+](=O)[O-])s1 [nitazoxanide]
overall response rate (clearance of the protozoan) (giardia; giardia): 75%

SMILES: N#Cc1cccc(C=NNC(=N)NN=Cc2cccc(C#N)c2)c1 [NCL026]
IC50 ([3]; 72 hours): 2500 ± 130 nM | L. donovani SI [3]: 3.84 | Apparent t1/2 [6]: 1.5 h | AUC0-inf [6]: 2.5 µM·h | Plasma CL [6]: 100.6 mL/min/kg | Plasma Vss [6]: 6.9 L/kg | IC50 [7]: 1400 nM | GI50 [1]: 9600 ± 990 nM | reduction of metabolic activity / inhibitory effect on T. brucei [2]: greatest inhibitory effect | IC50 ([2]; 48 hours): 1700 nM | IC50 ([2]; 48 hours, listed as NCL 026): 1680 ± 630 nM | T. brucei SI [2]: 5.71

SMILES: N=C(N)N/N=C/c1ccc(C(F)(F)F)cc1 [NCL041]
inhibition at 10 µM ([3]; Leishmania donovani): 100% | IC50 ([7]; Trypanosoma cruzi, TULAHUEN, L6): 14000 nM
